Here are results for four substances from US20210061684A1 (HIYOSHI CORPORATION, priority 2018, published 2021).

The test system of assay [1] is Legionella.
Assay [2] has as its system Legionella. This is another data set of the same source.

Where two headings read alike, the source gives them in different places.

For the substance ammonium iron (II) sulfate hexahydrate, in the assay on Legionella [1], the “effect on Legionella at low concentration” value (from here on “effect on Legionella”) is “a sufficient effect was obtained” and the “growth of Legionella” value is on record as “greatly suppressed”.
The matching figures for “ammonium iron (III) sulfate dodecahydrate”: “a sufficient effect was obtained” and “greatly suppressed”.
Turning to iron (II) sulfate heptahydrate, in the assay on Legionella [1], the “decrease of the number of bacteria” value was “at least 3 orders of magnitude”, the “effect on Legionella” value is given as “the effect was observed” and the “growth of Legionella” value is recorded as “greatly suppressed”. Moreover, in the assay with Legionella [2], the “effect on Legionella” value is “an effect was obtained” and the “growth of Legionella” value is reported as “greatly suppressed”.
Turning to iron (III) chloride hexahydrate, in the assay on Legionella [2], the “effect on Legionella” value is reported as “an effect was obtained” and the “growth of Legionella” value is reported as “greatly suppressed”.
